In ChEMBL document CHEMBL5728097, “Amino pyrazolopyrimidine compound used as neurotrophic factor tyrosine kinase receptor inhibitor” (2020):
pIC50: −log10 of the molar value.

Target: High affinity nerve growth factor receptor (Homo sapiens, UniProt P04629)
Assay: Inhibitory Activity Assay: TrkA, TrkB and TrkC:A testing platform for TrkA, TrkB and TrkC kinase activity was established based on Homogeneous Time-Resolved Fluorescence (HTRF) assay, and the activities of the compounds were tested using the platform. The compounds were subjected to three-fold gradient dilution with 100% DMSO with a starting concentration of 1 mM (11 concentrations in total). 4 μL of diluted sample for each concentration was added to 96 μL of reaction buffer (50 mM HEPES, pH7.4, 5 mM MgCl2, 1 mM NaVO3, 0.001% Tween-20, 0.01% BSA and 1 mM DTT) and mixed homogeneously to be used as a 4* compound. The reaction buffer was used to formulate 2* TrkA, TrkB and TrkC kinases (purchased from Carna Biosciences 08-186, 08-187, 08-197, and the final concentrations thereof were 0.5 nM, 0.1 nM, and 1 nM, respectively) and 4* substrate mixture (ATP+TK peptide) (wherein the final concentrations of ATP were 40 μM, 50 μM, and 20 μM, respectively; TK peptide, HTRF® KinEASE™-TK, was purchased from Cisbio, and the final concentration thereof was 100 nM) for use. 2.5 μL of the 4* compound was added to a 384-well plate (OptiPlate-384, purchased from PerkinElmer), and then 5 μL of the 2* TrkA, TrkB and TrkC kinases were added, and mixed homogeneously by centrifugation. Then 2.5 μL of the 4* substrate mixture was added to initiate the reaction (the total reaction volume is 10 μL). The 384-well plate was placed in an incubator and incubated for 60 min at 23° C. Then the reaction was terminated by adding 5 μL of Eu3+ cryptate-labeled anti-phosphotyrosine antibody (HTRF® KinEASE™-TK, purchased from Cisbio), and 5 μL of Streptavidin-XL-665 (HTRF® KinEASE™-TK, purchased from Cisbio). After incubated for 1 hr in the incubator, the fluorescence values were read on Envision (purchased from PerkinElmer).

Chain of High affinity nerve growth factor receptor (P04629 whole entry): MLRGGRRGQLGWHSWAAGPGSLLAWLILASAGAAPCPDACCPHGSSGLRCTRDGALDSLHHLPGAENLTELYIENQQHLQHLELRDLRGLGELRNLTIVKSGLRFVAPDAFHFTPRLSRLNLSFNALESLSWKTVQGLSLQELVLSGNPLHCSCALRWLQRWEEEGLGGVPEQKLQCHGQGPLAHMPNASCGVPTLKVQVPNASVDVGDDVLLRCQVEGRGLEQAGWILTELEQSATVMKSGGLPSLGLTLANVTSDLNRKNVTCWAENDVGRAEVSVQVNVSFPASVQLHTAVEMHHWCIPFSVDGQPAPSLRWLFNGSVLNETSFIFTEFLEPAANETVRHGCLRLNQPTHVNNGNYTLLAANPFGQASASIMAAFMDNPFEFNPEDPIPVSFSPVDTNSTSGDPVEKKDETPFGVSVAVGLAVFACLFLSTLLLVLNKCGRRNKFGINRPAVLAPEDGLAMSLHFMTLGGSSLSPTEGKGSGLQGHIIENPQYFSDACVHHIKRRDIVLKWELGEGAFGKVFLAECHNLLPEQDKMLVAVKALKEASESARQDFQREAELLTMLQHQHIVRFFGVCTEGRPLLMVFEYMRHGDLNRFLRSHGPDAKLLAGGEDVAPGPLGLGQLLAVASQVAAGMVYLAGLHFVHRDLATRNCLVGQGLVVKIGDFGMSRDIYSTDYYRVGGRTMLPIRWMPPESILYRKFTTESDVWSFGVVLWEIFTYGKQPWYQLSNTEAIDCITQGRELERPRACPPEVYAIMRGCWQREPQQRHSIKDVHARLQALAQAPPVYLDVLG

Structure (SMILES) | pIC50
Nc1nn2ccc(N3CCC[C@@H]3c3cc(F)ccc3F)nc2c1Br | > 7.60
CCOC(=O)c1c(N)nn2ccc(N3C[C@H](O)CC3c3cc(F)ccc3F)nc12 (stereo partly specified) | > 7.60
CCOC(=O)c1c(N)nn2ccc(N3C[C@@H](O)CC3c3cc(F)ccc3F)nc12 (stereo partly specified) | > 6.30
NC(=O)c1c(N)nn2ccc(N3C[C@@H](O)C[C@@H]3c3cc(F)ccc3F)nc12 | > 7.60
Nc1nn2ccc(N3CCC[C@@H]3c3cc(F)ccc3F)nc2c1C(=O)NC1CCC(O)CC1 (stereo partly specified) | > 9.00
CN(C)C(=O)c1c(N)nn2ccc(N3CCC[C@@H]3c3cc(F)ccc3F)nc12 | > 7.60

Now from value to compound:

pIC50 | Structure (SMILES)
> 9.00 | CC(C)(C)ONC(=O)c1c(N)nn2ccc(N3CCC[C@@H]3c3cc(F)ccc3F)nc12
> 9.00 | N#Cc1c(N)nn2ccc(N3C[C@@H](F)C[C@@H]3c3cc(F)ccc3F)nc12
> 9.00 | CC1(C)OCC(CONC(=O)c2c(N)nn3ccc(N4CCC[C@@H]4c4cc(F)ccc4F)nc23)O1 (stereo partly specified)
> 9.00 | Nc1nn2ccc(N3CCC[C@@H]3c3cc(F)ccc3F)nc2c1C(=O)NOCCO
> 9.00 | CC(C)(CO)ONC(=O)c1c(N)nn2ccc(N3CCC[C@@H]3c3cc(F)ccc3F)nc12
